For one assay, the system named is dnTGF-βRII mice. The assay is described as follows: dnTGF-βRII mice 32-34 wk (late stage PBC model) treated 1 wk by osmotic minipump. The note with it: for intrahepatic bile duct mass (IBDM, CK-19): 1 wk minipump. Format: in vivo, mouse. How it is done:
Briefly, we used wild-type (WT), dnTGFβRII 12 wk and dnTGFβRII 34 wk mice treated with control or SR antagonist (SCT 5-27) minipump (10 μg/kg/day) for 1 wk. Hepatic damage was shown by H&E. IBDM and cholangiocyte proliferation were measured by immunohistochemistry for CK-19 and Ki67, respectively. Biliary apoptosis was evaluated by TUNEL staining. Senescence was measured in cholangiocytes by immunofluorescence for CCL2 or p16 co-stained with CK-19 (to image bile ducts) and SA-β-Galactosidase activity. Hepatic fibrosis was assessed by qPCR for collagen-1a and α-SMA in total liver, and quantification of Sirius Red staining. Hepatic stellate cell (HSC) activation was evaluated by immunofluorescence (IF) for Syp-9. HSC senescence was evaluated by IF for CCL2 or p16 co-stained with desmin (to visualize HSCs). Secretin levels in serum and bile were measured by EIA. Bile and serum were obtained from human control, early PBC and advanced PBC patients, and secretin was evaluated by EIA.
All animal procedures were performed according to protocols approved by the Baylor Scott & White Health IACUC Committee. Transgenic mice expressing a dominant-negative form of the human transforming growth factor-beta receptor II (dnTGF-βRII) were obtained from Dr. M. Eric Gershwin at UC Davis Health (Sacramento, Calif.), and background-matched wild-type (WT, strain C57BL/6) mice were purchased from Charles River Laboratories (Wilmington, Mass.); the breeding colony is established in our animal facility. Animals were maintained in micro-isolator cages in a temperature-controlled environment with 12/12-hr light/dark cycles and fed ad libitum standard chow with free access to drinking water. Studies were performed in 12 wk-old WT mice, and 12 wk-old (mimic early stage PBC) and 32 wk-old (mimic late stage PBC) female and male dnTGF-βRII mice (25-30 gm) that were treated with either saline, secretin (Sct; 2.5 nmoles/kg body weight per day; Bachem, Torrance, Calif.) or the secretin receptor (SR) antagonist, Sec 5-27 (10 μg/kg body weight per day; Thermo Fisher Scientific, Waltham, Mass.) for 1 wk by intraperitoneally implanted osmotic minipump. Liver tissue samples and blocks (formalin-fixed, paraffin-embedded and OCT-embedded), serum, bile, cholangiocytes, and cholangiocyte supernatants (after incubation at 37° C. for 4 hr) were collected as described.
Hematoxylin and eosin (H&E) staining was performed in formalin-fixed, paraffin-embedded liver sections (4-5 μm, 3 samples from 3 different animals) to determine liver morphology. H&E stained liver sections were evaluated by a board-certified pathologist to assess the degree of lobular damage, hepatic necrosis and portal inflammation. At least 10 different portal areas were evaluated for each parameter. Liver sections were examined in a coded fashion by BX-51 light microscopy (Olympus, Tokyo, Japan) equipped with a camera (See, Mancinelli, R et al., Ischemia reperfusion of the hepatic artery induces the functional damage of large bile ducts by changes in the expression of angiogenic factors. Am J Physiol Gastrointest Liver Physiol 2015; 309:G865-873 (2015); Taffetani S et al., Prolactin stimulates the proliferation of normal female cholangiocytes by differential regulation of Ca2+-dependent PKC isoforms, BMC Physiol 7:6 (2007)).
Serum levels of alkaline phosphatase (ALP) and γ-glutamyltransferase (γGT) are commonly used to diagnose PBC (Heathcote, E J, Management of primary biliary cirrhosis. The American Association for the Study of Liver Diseases practice guidelines, Hepatology 31:1005-1013 (2000)); therefore, were measured serum levels of ALP and γGT in mouse serum samples using the Alkaline Phosphatase Assay Kit and γ-Glutamyltransferase Activity Colorimetric Assay Kit, respectively (Abcam; Cambridge, Mass.).
Early stage PBC is identified by cholangiocyte proliferation, whereas late stage PBC is characterized by ductopenia. […]

The subject of a further assay is large IMCLs. The assay is described as follows: Large IMCLs treated with secretin with/without LY2109761, or with TGF-β1 (Example 2). Format: cell-based, mouse. The note with it: secretin 10 nM, 12 hr. The source says: Cholangiocytes were obtained by immunoaffinity separation as described herein above, using a monoclonal antibody (a gift from Dr. R. Faris, Brown University, Providence, R.I.) that is expressed by all intrahepatic cholangiocytes. HSCs from the selected groups of mice were isolated by LCM as described previously in Wu, N et al., The secretin/secretin receptor axis modulates liver fibrosis through changes in transforming growth factor-beta1 biliary secretion in mice, Hepatology (Baltimore, Md.) 64(3):865-879 (2016). Briefly, frozen liver sections (n=3, 10 μm thick) were incubated overnight with an anti-desmin (a marker of stellate cells) antibody. Then, desmin-positive cells were dissected from the slides using a LCM system Leica LMD7000 (Buffalo Grove, Ill.) and were collected before RNA extraction with the Arcturus PicoPure RNA isolation kit (Thermo Fisher Scientific CO, Mountain View, Calif.). The in vitro studies were performed in: (I) immortalized murine cholangiocyte lines derived from large cholangiocytes lining large ducts (IMCLs); and (ii) human hepatic stellate cell lines (HHSteCs; ScienCell Research Laboratories, Carlsbad, Calif.).
WT mice were treated for 1 wk with saline or secretin (Sct; 2.5 nmoles/kg body weight per day) before collecting cholangiocytes, HSCs and cholangiocyte supernatants. The levels of TGF-β1 were measured in short-term (6-hour) cultures of cholangiocytes by ELISA kits. Subsequently, we measured: (i) liver fibrosis by immunofluorescence for Col1a1 in liver sections and real-time PCR for TGF-β1, TFG-β1R, Col1a1, α-SMA and Fn1 in cholangiocytes and HSCs; and (ii) cellular senescence by immunofluorescence in liver sections for p16 and real-time PCR for p16 and p21 in cholangiocytes and HSC.
Biliary supernatants were obtained from normal and BDL WT mice and Sct^−/−, SR^−/− and Sct^−/−/SR^−/− BDL mice as well as normal WT mice treated with saline or secretin. HHSteCs were incubated with the aforementioned biliary supernatants (containing different levels of TGF-β1) for 24 hr (in the absence or presence of LY2109761) before measuring the expression of senescence and fibrosis genes by real-time PCR. Furthermore, HHSteCs were incubated with the supernatant of large IMCLs treated for 0.2% bovine serum albumin (basal) or secretin (10 nM) with/without LY2109761 for 6 hr before measuring the mRNA expression of fibrosis and senescence genes. To provide direct evidence that TGF-β1 directly modulates fibrosis and senescence of IMCLs and HHSteCs, these cells were stimulated with TGF-β1 (10 nM) for 24 hr before measuring the expression of PCNA as well as fibrosis and senescence genes by real-time PCR.

Where [1] appears, read: dnTGF-βRII 32/34 wk, vs saline treated.

“Also recorded” adds a separate entry of the source.

With secretin [Sct], in the assay with dnTGF-βRII mice (dnTGF-βRII 32/34 wk), the “biliary senescence (p16, p18, p21, CCL2)” value is reported as “reduced”; the “cholangiocyte apoptosis (TUNEL)” value was “reduced”; the “collagen content / deposition (Sirius Red), hepatic fibrosis” value was “decreased; also recorded: reduced”. For the same substance, in the assay with dnTGF-βRII mice (setting [1]), the “Sct, SR, CFTR and AE2 expression” value is given as “increased expression”; the “intrahepatic bile duct mass (IBDM, CK-19)” value is “increased”. Further, the “intrahepatic bile duct mass (IBDM, CK-19)” value with dnTGF-βRII mice (dnTGF-βRII 32/34 wk, vs saline treated, listed as secretin) is recorded as “increased biliary mass in the late stage PBC mice back to normal levels”. Further, in the assay on dnTGF-βRII mice (dnTGF-βRII 32/34 wk, listed as secretin), the “collagen content / deposition (Sirius Red), hepatic fibrosis” value is “significantly reduced”. Besides, in the assay on dnTGF-βRII mice (dnTGF-βRII 34 wk), the “HSC activation (SYP-9)” value is “reduced”; the “biliary growth / cholangiocyte proliferation” value is recorded as “increased”; the “liver damage (H&E)” value was “ameliorate; also recorded: reduced”; the “secretin levels (serum; serum and bile)” value is given as “increased”. For the same substance, the “Liver inflammation, Kupffer cell number” value with dnTGF-βRII mice (dnTGFβRII 12 and 34 wk as printed) is “reduced”. Also, in the assay with dnTGF-βRII mice (dnTGFβRII 34 wk), the TBA levels result is listed as “reduced”. In addition, the “serum levels of ALP and γGT” value in the assay with dnTGF-βRII mice (late stage PBC model) is “reduced”. Moreover, the “secretion of TGF-β1 and expression of fibrosis and senescence genes of large IMCLs” value in the assay with large IMCLs is on record as “increased”.

Values taken from patent publication US11318190B2, “Methods and compositions for treating liver disease” (UNITED STATES GOVERNMENT AS REPRESENTED BY THE DEPARTMENT …, priority 2017, dated 2022).
